Values of other authors, collected in patent EP0529484A1, “Antitussive and expectorant composition” (ND NEW DRUG DEVELOPMENT INSTITUTE INC., priority 1991, dated 1993).

With C[N+]1(CCF)[C@@H]2CC[C@H]1C[C@@H](OC(=O)C(O)(c1ccccc1)c1ccccc1)C2 (stereo partly drawn) [flutropium bromide, 8(r)-8-(2-fluoroethyl)-3α-hydroxy-1αH,5αH-tropanium bromide, benzilate hydrate] as the compound, how does the “LD₅₀ through oral administration” value (rat) read?
Its value is 2,900 mg/kg.

And the “LD₅₀ through oral administration” value (mouse)?
The value was 930 mg/kg.
